Data on ten molecules can be found in US20030100549A1, “Inhibitors of c-Jun N-terminal kinases (JNK)” (priority 1999, published 2003).

For this experiment, the target named is T1, activated JNK3 (Homo sapiens, UniProt P53779).
T1 construct: One such construct encodes amino acid residues Ser40-Glu402 of JNK3α1 and is preceded by Met and Gly residues; Met-Gly (initiator Met plus Gly added for the NcoI site) (N); made in house; host or cells: E. coli BL21 (DE3)
The experiment can be described thus: JNK3 inhibition, spectrophotometric coupled-enzyme assay. Particulars: activated JNK3 10 nM, 10 μM ATP, 200 μM EGF receptor peptide, 30° C. It is filed as biochemical. An excerpt: A BLAST search of the EST database using the published JNK3α1 cDNA as a query identified an EST clone (#632588) that contained the entire coding sequence for human JNK3α1. Polymerase chain reactions (PCR) using pfu polymerase (Strategene) were used to introduce restriction sites into the cDNA for cloning into the pET-15B expression vector at the NcoI and BamHI sites. The protein was expressed in E. coli. Due to the poor solubility of the expressed full-length protein (Met 1-Gln 422), an N-terminally truncated protein starting at Ser residue at position 40 (Ser 40) was produced. This truncation corresponds to Ser 2 of JNK1 and JNK2 proteins, and is preceded by a methionine (initiation) and a glycine residue. The glycine residue was added in order to introduce an NcoI site for cloning into the expression vector. In addition, systematic C-terminal truncations were performed by PCR to identify a construct that give rise to diffraction-quality crystals. One such construct encodes amino acid residues Ser40-Glu402 of JNK3α1 and is preceded by Met and Gly residues.
5 mg of JNK3 was diluted to 0.5 mg/ml in 50 mM HEPES buffer, pH 7.5, containing 100 mM NaCl, 5 mM DTT, 20 mM MgCl2 and 1 mM ATP. GST-MKK7(DD) was added at a molar ratio of 1:2.5 GST-MKK7:JNK3. After incubation for 30 minutes at 25° C., the reaction mixture was concentrated 5-fold by ultrafiltration in a Centriprep-30 (Amicon, Beverly, Mass.), diluted to 10 ml and an additional 1 mM ATP added. This procedure was repeated three times to remove ADP and replenish ATP. The final addition of ATP was 5 mM and the mixture incubated overnight at 4° C.
The activated JNK3/GST-MKK7(DD) reaction mixture was exchanged into 50 mM HEPES buffer, pH 7.5, containing 5 mM DTT and 5% glycerol (w/v) by dialysis or ultrafiltration. The reaction mixture was adjusted to 1.1 M potassium phosphate, pH 7.5, and purified by hydrophobic interaction chromatography (at 25° C.) using a Rainin Hydropore column. […] Activated JNK3 (i.e. doubly phosphorylated JNK3) was stored at −70° C. at 0.25-1 mg/ml.
Compounds were assayed for the inhibition of JNK3 by a spectrophotometric coupled-enzyme assay. In this assay, a fixed concentration of activated JNK3 (10 nM) was incubated with various concentrations of a potential inhibitor dissolved in DMSO for 10 minutes at 30° C. in a buffer containing 0.1 M HEPES buffer, pH 7.5, containing 10 mM MgCl2, 2.5 mM phosphoenolpyruvate, 200 μM NADH, 150 μg/mL pyruvate kinase, 50 μg/mL lactate dehydrogenase, and 200 μM EGF receptor peptide. The EGF receptor peptide has the sequence […], and is a phosphoryl acceptor in the JNK3-catalyzed kinase reaction. The reaction was initiated by the addition of 10 μM ATP and the assay plate is inserted into the spectrophotometer's assay plate compartment that was maintained at 30° C. The decrease of absorbance at 340 nm was monitored as a function of time. The rate data as a function of inhibitor concentration was fitted to competitive inhibition kinetic model to determine the Ki.

T1 sequence (P53779 40-402): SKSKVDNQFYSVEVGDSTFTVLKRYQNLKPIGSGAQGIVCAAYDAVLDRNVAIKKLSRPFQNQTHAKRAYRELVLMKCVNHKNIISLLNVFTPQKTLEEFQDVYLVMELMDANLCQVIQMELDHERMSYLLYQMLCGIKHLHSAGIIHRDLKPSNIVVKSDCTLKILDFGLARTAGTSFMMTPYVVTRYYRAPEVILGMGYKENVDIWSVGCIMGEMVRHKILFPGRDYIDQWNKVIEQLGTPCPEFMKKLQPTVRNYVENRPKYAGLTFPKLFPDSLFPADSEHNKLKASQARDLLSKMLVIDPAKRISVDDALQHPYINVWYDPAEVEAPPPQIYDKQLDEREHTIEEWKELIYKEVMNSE

For orientation: Ki means the equilibrium dissociation constant of an inhibitor or competing ligand from its target. For `O=C(Nc1ccccc1)c1c(Nc2ccccc2)[nH]c(=O)[nH]c1=O` [Cmpd 1], the Ki is less than 1 µM. In the case of `O=C(Nc1ccccn1)c1c(Nc2ccccc2)[nH]c(=O)[nH]c1=O` [Cmpd 2, 2,4-Dioxo-6-phenylamino-1,2,3,4-tetrahydro-pyrimidine-5-carboxylic acid pyridin-2-ylamide], the Ki was not below 1 µM. On to `O=C(Nc1ccc(F)cc1)c1c(Nc2ccccc2)[nH]c(=O)[nH]c1=O` [Cmpd 3, 2,4-dioxo-6-phenylamino-1,2,3,4-tetrahydro-pyrimidine-5-carboxylic acid (4-fluoro-phenyl)-amide], for which the Ki is not below 1 µM. The value for `Cc1cccc(NC(=O)c2c(Nc3ccccc3)[nH]c(=O)[nH]c2=O)c1` [Cmpd 4] was not below 1 µM. With `Cc1ccccc1Nc1[nH]c(=O)[nH]c(=O)c1C(=O)Nc1ccccc1` [Cmpd 5] the figure was not below 1 µM; with `Cc1ccccc1Nc1[nH]c(=O)[nH]c(=O)c1C(=O)Nc1ccc(F)cc1` [Cmpd 6], not below 1 µM. The value for `Cc1cccc(NC(=O)c2c(Nc3ccccc3C)[nH]c(=O)[nH]c2=O)c1` [Cmpd 7] was not below 1 µM. In the case of `O=C(Nc1ccccc1)c1c(Nc2ccc(F)cc2)[nH]c(=O)[nH]c1=O` [Cmpd 8], the Ki was not below 1 µM. The value for `O=C(Nc1ccc(F)cc1)c1c(Nc2ccc(F)cc2)[nH]c(=O)[nH]c1=O` [Cmpd 9] was not below 1 µM; that for `Cc1cccc(NC(=O)c2c(Nc3ccc(F)cc3)[nH]c(=O)[nH]c2=O)c1` [Cmpd 10] was not below 1 µM.
